In patent US20120178671A1, “INHIBITION OF NFK-B MEDIATED VIRUS REPLICATION WITH SPECIFIC OLIGOSACCHARIDES” (N.V. Nutricia, priority 2009, published 2012):
Entries after “also recorded” stand apart in the source; their conditions may differ. Where two headings read alike, the source gives them in different places.

What was measured:
Type in all cases: cell-based
[1] = system: NF-κB; assay: Screening of oligosaccharides NFK-B inhibiting activity; settings: screening of (oligo)saccharides, Yes/No
Source text: It is hypothesized that the main site of action of the specific nutritional oligosaccharides as mentioned in example 1, is the intestine. […] Screening of oligosaccharides NFK-B inhibiting activity

[2] = system: NFκB activation; assay: NFκB luciferase reporter in HEK293 cells with EPA, pAOS and L-cysteine, TNF-α induced; settings: HEK293-NFκB-Luc cells stimulated with TNFα; for activity at 1000 µM: Homo sapiens, read-out: Inhibition of NFκB activation, average
Description: Methods: HEK293 cells were stably transfected with a NFκB luciferase reporter gene construct. One day after cell plating EPA (0, 25 μM) was added at t=0 h. pAOS (0, 1, 2 and 3 g/L) were added at t=96 h and L-cysteine (0, 1 mM) at t=120 h. NFκB activation was induced by 2.5 h incubation with TNF-α. Luciferase activity was subsequently assessed at t=122.5 h. As a control for cell viability cellular ATP levels were determined.

[3] = system: HEK293 cells; assay: Glutathione in HEK293 cells incubated with pAOS and NAC; settings: AOS 22.5 hr (18 h in Example 4), NAC 2.5 hr, compared with TNF-α-stimulated cells (control)
Description: To determine this, HEK293 cells were incubated with AOS for 22.5 hr. and NAC in combination with TNF-α for 2.5 hr. Obtained GSH levels were corrected for cell numbers and results were compared levels with TNF-α-stimulated cells (control). […] The combination of NAC and AOS enhance GSH production up to 278% compared with control. Data sets were compared with their baseline controls (0 mg/ml AOS in combination with its specific concentration of NAC or L-cysteine) and presented in example 2. High concentrations of AOS and NAC result in a relative stronger increase in GSH levels.
Methods: HEK293 cells were incubated with citrus pectin oligosaccharide (pAOS) for 18 h, then as a cystein source, NAC was added and incubated for 2.5 h. After the incubation period, the cells were centrifugated (2000 rpm for 5 min). Medium was discarded and taken up into ice-cold perchloric acid (0.4 M) and resuspended. Samples were then centrifuged for 10 min. at 13.000 rpm. Supernatant was collected and used for glutathione measurements. Total glutathione measurements were performed in 10 or 20 times diluted samples.

[4] = system: TNF-α-mediated NF-κB activation; assay: NF-κB luciferase reporter in HEK293 cells, TNF-α induced (pAOS with NAC or L-cysteine); settings: pAOS pre-incubated, NAC or L-cysteine added with TNF-α for 2.5 hr
Description: FIG. 2. NFkappaB response in HEK293 cells after 22.5 hr. incubation with AOS and NAC (A) or L-cysteine (B) with TNF-α for 2.5 hr. […] TNF-α was added to induce NF-κB activation. citrus pectin oligosaccharide (pAOS) was added 18 h prior to TNF-α addition (t=18 h). As a cystein source, NAC was added at the same time as TNF-α. At t=20.5 the production of luciferase was measured by chemiluminescence.

OC[C@H]1O[C@@](CO)(OC[C@@]2(OC[C@@]3(O[C@H]4O[C@H](CO)[C@@H](O)[C@H](O)[C@H]4O)O[C@H](CO)[C@@H](O)[C@@H]3O)O[C@H](CO)[C@@H](O)[C@@H]2O)[C@@H](O)[C@@H]1O [1,1-kestotetraose]
NFκB inhibition [1]: No

OC[C@H]1O[C@@](CO)(OC[C@@]2(O[C@H]3O[C@H](CO)[C@@H](O)[C@H](O)[C@H]3O)O[C@H](CO)[C@@H](O)[C@@H]2O)[C@@H](O)[C@@H]1O [1-kestose]
NFκB inhibition [1]: No

CC/C=C\C/C=C\C/C=C\C/C=C\C/C=C\CCCC(=O)O [EPA, eicosapentaenoic acid]
Inhibition of NFκB activation, average ([2]; AOS 0 mg/ml, EPA 25 uM and/or L-cysteine 1 mM as labelled, control without additions = 100): 113
Inhibition of NFκB activation, average ([2]; AOS 1 mg/ml, alone or together with the labelled EPA 25 uM and/or L-cysteine 1 mM, control = 100): 62
Inhibition of NFκB activation, average ([2]; AOS 2 mg/ml, alone or together with the labelled EPA 25 uM and/or L-cysteine 1 mM, control = 100): 29
Inhibition of NFκB activation, average ([2]; AOS 3 mg/ml, alone or together with the labelled EPA 25 uM and/or L-cysteine 1 mM, control = 100): 8

O=C(O)[C@H]1O[C@H](O[C@@H]2[C@H](O)[C@@H](O)[C@@H](O)O[C@@H]2C(=O)O)[C@H](O)[C@@H](O)[C@H]1O [Digalacturonic acid]
NFκB inhibition [1]: Yes

N[C@@H](CS)C(=O)O [L-cysteine]
activity at 1000 µM ([2]; HEK293, AOS 0 mg/ml, EPA 25 uM and/or L-cysteine 1 mM as labelled, control without additions = 100): 80%
activity at 1000 µM ([2]; HEK293, AOS 1 mg/ml, alone or together with the labelled EPA 25 uM and/or L-cysteine 1 mM, control = 100): 55%
activity at 1000 µM ([2]; HEK293, AOS 2 mg/ml, alone or together with the labelled EPA 25 uM and/or L-cysteine 1 mM, control = 100): 32%
activity at 1000 µM ([2]; HEK293, AOS 3 mg/ml, alone or together with the labelled EPA 25 uM and/or L-cysteine 1 mM, control = 100): 24%

O.OC[C@H]1O[C@H](OC[C@H]2O[C@H](OC[C@H]3O[C@H](O[C@]4(CO)O[C@H](CO)[C@@H](O)[C@@H]4O)[C@H](O)[C@@H](O)[C@@H]3O)[C@H](O)[C@@H](O)[C@H]2O)[C@H](O)[C@@H](O)[C@H]1O [Stachyose hydrate]
NFκB inhibition [1]: No

O=C(O)[C@H]1O[C@H](O[C@@H]2[C@H](O)[C@@H](O)[C@@H](O[C@@H]3[C@H](O)[C@@H](O)C(O)O[C@@H]3C(=O)O)O[C@@H]2C(=O)O)[C@H](O)[C@@H](O)[C@H]1O (stereo partly drawn) [Trigalacturonic acid]
NFκB inhibition [1]: Yes

O=C[C@H](O)[C@@H](O)[C@@H](O)[C@H](O)C(=O)O [Galacturonic acid]
NFκB inhibition [1]: No

OC[C@H]1O[C@@](CO)(OC[C@@]2(OC[C@@]3(OC[C@@]4(O[C@H]5O[C@H](CO)[C@@H](O)[C@H](O)[C@H]5O)O[C@H](CO)[C@@H](O)[C@@H]4O)O[C@H](CO)[C@@H](O)[C@@H]3O)O[C@H](CO)[C@@H](O)[C@@H]2O)[C@@H](O)[C@@H]1O [1,1,1-kestopentaose]
NFκB inhibition [1]: No

OC[C@H]1O[C@H](OC[C@H]2OC(O)(CO)[C@@H](O)[C@@H]2O)[C@H](O)[C@@H](O)[C@@H]1O (stereo partly drawn) [Palatinose]
NFκB inhibition [1]: No

CC(=O)N[C@@H](CS)C(=O)O [NAC, N-acetyl cysteine]
GSH (glutathione) levels, result in words [3]: enhances GSH levels in a concentration of 10 mM
TNF-α-mediated NF-κB activation, result in words [4]: capable of blocking NF-κB activation; also recorded: inhibited TNF-α-mediated NF-κB activation dose dependently
